Results reported in patent US20070149465A1, “COMPOSITIONS AND METHODS FOR PREVENTION AND TREATMENT OF CACHEXIA” (priority 2005, published 2007).

Key:
AH-inoculated rats = assay: Rat AH130 Ascites Hepatoma Model of Cancer Cachexia, AH-inoculated rats; assay type: in vivo, female Wistar rats
Experimental: Following the method of Busquets et al (Busquets S, et al: Cancer Res 64:6725-31, 2004), female Wistar rats were inoculated (Day 0) intra-peritoneally (i.p.) with 2×10^7 cells/animal of Yoshida AH-130 ascites hepatoma (AH) cells. Control animals were inoculated with an equivalent amount of sterile saline solution. […] The animals were sacrificed on Day 5. Upon sacrifice, wet weights of heart and gastrocnemius muscle were determined. Carcass (after gastrocnemius, heart, and ascites removal) weight was also determined upon sacrifice.
Treatment Group=Inoculation Type/Vehicle, or Treatment Group=Inoculation Type/F(x)R(y) where, Inoculation Type is either AH or Saline, F is formoterol fumarate, R is roxithromycin, and the parenthetical values are formoterol fumarate and roxithromycin doses (i.p. in mg/kg).

[1] = Aqueous stability of roxithromycin (% Purity by HPLC); assay type: physicochemical; details: for Roxithromycin % Purity By Area Normalization: 2 mg/mL, 25° C.
Experimental: Roxithromycin stability was determined for 2 mg/mL [roxithromycin] at 5, 25, and 40° C. as a function of pH and buffer (citrate) concentration. Roxithromycin %Purity was determined by area normalization using a reverse-phase HPLC method that meets the requirements of the EP Monograph. Solution pH values were determined per USP <791>.

[2] = Exp 1 Group 4, AH, F 0, R 5 mg/kg i.p., Day 5, normalized to 100 g Day 5 Total Body Weight
[3] = Exp 4 Group 21, AH, F 0, R 50 mg/kg i.p., Day 5, sample weight normalized to 100 g Day 5 Total Body Weight
[4] = Experiment 4, AH/F(0)R(50) group

Compound: CC[C@H]1OC(=O)[C@H](C)[C@@H](O[C@H]2C[C@@](C)(OC)[C@@H](O)[C@H](C)O2)[C@H](C)[C@@H](O[C@@H]2O[C@H](C)C[C@H](N(C)C)[C@H]2O)[C@](C)(O)C[C@@H](C)/C(=N\OCOCCOC)[C@H](C)[C@@H](O)[C@]1(C)O [roxithromycin]
- Carcass Weights Mean (AH-inoculated rats; [2]): 94.35 g
- Gastrocnemius Weights Mean (AH-inoculated rats; [2]): 0.493 g
- Heart Weights Mean (AH-inoculated rats; [2]): 0.320 g
- Carcass Mean (AH-inoculated rats; [3]): 94.1
- Gastrocnemius Mean (AH-inoculated rats; [3]): 0.500
- Heart Mean (AH-inoculated rats; [3]): 0.338
- gastrocnemius muscle loss compared with AH/vehicle group (AH-inoculated rats; Experiment 1, AH/F(0)R(5) group): approximately the same amount
- gastrocnemius muscle weights compared with AH/vehicle group (AH-inoculated rats; [4]): significantly larger
- gastrocnemius weights compared with AH/F(1)R(0) group (AH-inoculated rats; [4]): essentially identical
- gastrocnemius weights compared with AH/F(1)R(50) group (AH-inoculated rats; [4]): slightly less
- muscle wasting associated with the AH rat model (AH-inoculated rats; summary of Experiments 1-4): prevents muscle wasting
- preventing AH-induced gastrocnemius muscle loss, roxithromycin alone compared with formoterol fumarate alone (AH-inoculated rats; summary of Experiments 1-4): effective as formoterol fumarate alone
- stability of aqueous formulation ([1]; 2 mg/mL roxithromycin, 20 mM citrate buffer at pH 6): satisfactory
- Roxithromycin % Purity By Area Normalization ([1]; citrate pH 4, 20 mM, 0 mo): 81%
- Roxithromycin % Purity By Area Normalization ([1]; citrate pH 4, 20 mM, 0.3 mo): 74%
- Roxithromycin % Purity By Area Normalization ([1]; citrate pH 4, 20 mM, 0.5 mo): 70%
- Roxithromycin % Purity By Area Normalization ([1]; citrate pH 4, 20 mM, 0.9 mo): 65%
- Roxithromycin % Purity By Area Normalization ([1]; citrate pH 4, 20 mM, 1.5 mo): 56%
- Roxithromycin % Purity By Area Normalization ([1]; citrate pH 4, 20 mM, 2.6 mo): 48%
- Roxithromycin % Purity By Area Normalization ([1]; citrate pH 4, 20 mM, 5.3 mo): 28%
- Roxithromycin % Purity By Area Normalization ([1]; citrate pH 4, 20 mM, 7.3 mo): 15%
- Roxithromycin % Purity By Area Normalization ([1]; citrate pH 4, 50 mM, 0 mo): 78%
- Roxithromycin % Purity By Area Normalization ([1]; citrate pH 4, 50 mM, 0.3 mo): 71%
- Roxithromycin % Purity By Area Normalization ([1]; citrate pH 4, 50 mM, 0.5 mo): 65%
- Roxithromycin % Purity By Area Normalization ([1]; citrate pH 4, 50 mM, 0.9 mo): 59%
- Roxithromycin % Purity By Area Normalization ([1]; citrate pH 4, 50 mM, 1.5 mo): 47%
- Roxithromycin % Purity By Area Normalization ([1]; citrate pH 4, 50 mM, 2.6 mo): 33%
- Roxithromycin % Purity By Area Normalization ([1]; citrate pH 4, 50 mM, 5.3 mo): 15%
- Roxithromycin % Purity By Area Normalization ([1]; citrate pH 4, 50 mM, 7.3 mo): 6%
- Roxithromycin % Purity By Area Normalization ([1]; citrate pH 5, 20 mM, 0 mo): 96%
- Roxithromycin % Purity By Area Normalization ([1]; citrate pH 5, 20 mM, 0.3 mo): 88%
- Roxithromycin % Purity By Area Normalization ([1]; citrate pH 5, 20 mM, 0.5 mo): 84%
- Roxithromycin % Purity By Area Normalization ([1]; citrate pH 5, 20 mM, 0.9 mo): 80%
- Roxithromycin % Purity By Area Normalization ([1]; citrate pH 5, 20 mM, 1.5 mo): 77%
- Roxithromycin % Purity By Area Normalization ([1]; citrate pH 5, 20 mM, 2.6 mo): 75%
- Roxithromycin % Purity By Area Normalization ([1]; citrate pH 5, 20 mM, 5.3 mo): 75%
- Roxithromycin % Purity By Area Normalization ([1]; citrate pH 5, 20 mM, 7.3 mo): 71%
- Roxithromycin % Purity By Area Normalization ([1]; citrate pH 5, 50 mM, 0 mo): 92%
- Roxithromycin % Purity By Area Normalization ([1]; citrate pH 5, 50 mM, 0.3 mo): 82%
- Roxithromycin % Purity By Area Normalization ([1]; citrate pH 5, 50 mM, 0.5 mo): 78%
- Roxithromycin % Purity By Area Normalization ([1]; citrate pH 5, 50 mM, 0.9 mo): 77%
- Roxithromycin % Purity By Area Normalization ([1]; citrate pH 5, 50 mM, 1.5 mo): 74%
- Roxithromycin % Purity By Area Normalization ([1]; citrate pH 5, 50 mM, 2.6 mo): 71%
- Roxithromycin % Purity By Area Normalization ([1]; citrate pH 5, 50 mM, 5.3 mo): 67%
- Roxithromycin % Purity By Area Normalization ([1]; citrate pH 5, 50 mM, 7.3 mo): 59%
- Roxithromycin % Purity By Area Normalization ([1]; citrate pH 5, 100 mM, 0 mo): 90%
- Roxithromycin % Purity By Area Normalization ([1]; citrate pH 5, 100 mM, 0.3 mo): 79%
- Roxithromycin % Purity By Area Normalization ([1]; citrate pH 5, 100 mM, 0.5 mo): 76%
- Roxithromycin % Purity By Area Normalization ([1]; citrate pH 6, 20 mM, 0 mo): 98%
- Roxithromycin % Purity By Area Normalization ([1]; citrate pH 6, 20 mM, 0.3 mo): 97%
- Roxithromycin % Purity By Area Normalization ([1]; citrate pH 6, 20 mM, 0.5 mo): 96%
- Roxithromycin % Purity By Area Normalization ([1]; citrate pH 6, 20 mM, 0.9 mo): 96%
- Roxithromycin % Purity By Area Normalization ([1]; citrate pH 6, 20 mM, 1.5 mo): 94%
- Roxithromycin % Purity By Area Normalization ([1]; citrate pH 6, 20 mM, 2.6 mo): 92%
- Roxithromycin % Purity By Area Normalization ([1]; citrate pH 6, 20 mM, 5.3 mo): 90%
- Roxithromycin % Purity By Area Normalization ([1]; citrate pH 6, 20 mM, 7.3 mo): 87%
- Roxithromycin % Purity By Area Normalization ([1]; citrate pH 6, 50 mM, 0 mo): 98%
- Roxithromycin % Purity By Area Normalization ([1]; citrate pH 6, 50 mM, 0.3 mo): 96%
- Roxithromycin % Purity By Area Normalization ([1]; citrate pH 6, 50 mM, 0.5 mo): 94%
- Roxithromycin % Purity By Area Normalization ([1]; citrate pH 6, 50 mM, 0.9 mo): 92%
